Measured values taken from US7977512B2, “Amine derivative, and production method and use thereof” (Kureha Corporation, priority 2005, dated 2011).
Where a name gives a salt, the structure may show the parent alone.

System: Pseudoperonospora cubensis
Assay: Protection test of Pseudoperonospora cubensis on cucumber cotyledons
Assay type: in vivo
Settings: 144 h, spraying concentration 1000 ppm, water dispersible powder sprayed onto cucumber cotyledons (var. Sagami-Hanjiro) one day before inoculation, incidence scored six days after inoculation, read-out: Protective value
Description: Water dispersible powders were prepared in the same manner as in Formulation Example 2 using the compound (2a), (2aa), (2b), (2ba), (15), (16), (17), (18), (19), or (20). The each water dispersible powder was diluted with water to a predetermined concentration (1000 mg/l) and suspended. The diluted suspension was sprayed onto cucumber cotyledons (var. Sagami-Hanjiro) grown in a rectangular plastic pot (6.4 cm×6.4 cm) at 100 1/10 a. After air-drying the sprayed leaves one day, a Pseudoperonospora cubensis spore suspension was sprayed onto the leaves to inoculate, and the leaves were maintained at 25° C. under high humidity conditions. After six days from the inoculation, the incidence of Pseudoperonospora cubensis was investigated according to the following criteria. The protective value is calculated according to the following equation 1.
Protective value(%)=(1−average incidence in sprayed area/average incidence in non-sprayed area)×100 [Equation 1]

SMILES	pest or weed control at 1000 ppm [%]
CCCN(CCC)CCCCNCc1ccc(C#N)cc1 [(2a), 4-[(4-dipropylaminobutyl)amino]methylbenzonitrile]	100
CCCN(CCC)CCCCN(C)Cc1ccc(C#N)cc1 [(2b), 4-[(4-dipropylaminobutyl)methylamino]methylbenzonitrile]	100
CCCN(CCC)CCCCN(Cc1ccc(Br)cc1)Cc1ccc(C#N)cc1 [(15), 4-{[(4-bromobenzyl)-(4-dipropylaminobutyl)amino]methyl}benzonitrile]	100
CCCN(CCC)CCCCN(Cc1ccc(C#N)cc1)Cc1ccc(N(CC)CC)cc1 [(16), 4-{[(4-diethylaminobenzyl)-(4-dipropylaminobutyl)amino]methyl}benzonitrile]	100
CCCN(CCC)CCCCN(Cc1ccc(C#N)cc1)Cc1ccc(C)o1 [(17), 4-{[(4-dipropylaminobutyl)-(5-methylfuran-2-ylmethyl)amino]methyl}benzonitrile]	100
CCCN(CCC)CCCCN(Cc1ccc(C#N)cc1)Cc1ccc[nH]1 [(18), 4-{[(4-dipropylaminobutyl)-(1H-pyrrol-2-ylmethyl)amino]methyl}benzonitrile]	100
CCCN(CCC)CCCCN(Cc1ccc(C#N)cc1)Cc1ccc(OC)cc1 [(19), 4-{[(4-dipropylaminobutyl)-(4-methoxybenzyl)amino]-methyl}-benzonitrile]	90
CCCN(CCC)CCCCN(CC(=O)OCc1ccccc1)Cc1ccc(C#N)cc1 [(20), [(4-cyanobenzyl)-(4-dipropylaminobutyl)amino]benzyl acetate]	100

System: not given
Assay: not given
Settings: not given

SMILES	melting point [°C]
CCCN(CCC)CCCCN(CCOC(C)=O)Cc1ccc(CN)cc1.Cl	105 to 106
CCCN(CCC)CCCCNCc1ccc(CN)cc1.Cl	205 to 210
CCCN(CCC)CCCCNCc1ccc(C#N)cc1 (as salt: hydrochloride) [(2aa), 4-[(4-dipropylaminobutyl)amino]methylbenzonitrile hydrochloride]	198 to 200
